This is an account of results in patent publication US12440431B2, “Cosmetic comprising ultraviolet wavelength conversion substance” (Shiseido Company, Ltd., priority 2019, dated 2025).

Experiment [1] deals with Human dermal fibroblasts. As to the kind of experiment: Cell activity (AlamarBlue) of cells irradiated with UV through a UV wavelength conversion substance solution. It is filed as cell-based. Particulars: UV dose 0-100 mJ/cm^2, FIG. 3. Here is the method: The UV wavelength conversion substances (1) and (2) were dissolved in water to prepare solutions having a concentration of 1% or 5%.
The UV wavelength conversion substances (3) and (4) were dispersed in alcohol to prepare 5% and 10% dispersions.
(§1) 1. Human dermal fibroblasts and human skin keratinocytes purchased from Kurabo Industries Ltd. were used. A cell suspension (1 mL) stored in liquid nitrogen was thawed in a water bath (37° C.) to an extent that small ice pellets remained, and then diluted with 9 mL of warm medium. 2. The diluted suspension was mixed gently and then transferred to a T75 flask and incubated overnight at 37° C. 3. The next day, the medium was replaced with 10 mL of fresh medium. 4. The medium was replaced periodically (once every 2 days for fibroblasts and once every 2 to 3 days for keratinocytes) and cell proliferation was continued. Meanwhile, the cells were observed using a microscope, and it was confirmed that the cells grew in the correct form. 5. After the cells reached about 80% confluence, the cells were passaged. The cells were passaged by washing the cells once with 10 mL of warm PBS, adding 5 mL of warm trypsin to a T75 flask, covering the bottom of the flask with a trypsin solution, followed by aspirating at room temperature for 1 minute. 6. […]
On the technique in general: The colour change of resazurin is a common sign of viable cells or microbes.

For experiment [2], the system named is Human dermal fibroblasts. As to the kind of experiment: Restoration of cell activity decreased by prior UV irradiation (AlamarBlue). It is filed as cell-based. Particulars: pre-irradiation 400 mJ/cm^2 without substance, then UV 0-200 mJ/cm^2 through 0.4% or 2% C-phycocyanin (equivalent effect), FIG. 5. Here is the method:
as §1, with “6. The flask was allowed to stand in an oven at 37° C. for (maximum) 2 minutes for fibroblasts and (maximum) 7 minutes for keratinocytes. The cells were observed using a microscope and confirmed to be small and oval. 7. Thereafter, the side of the T75 flask was lightly tapped to release the cells.” for “6.”

Regarding C-phycocyanin, the “cell activity (relative fluorescence intensity)” value was “the decrease in cell activity was suppressed” in the experiment with Human dermal fibroblasts [1] (0.4% C-phycocyanin solution) and “the cell activity was even increased compared to the case where UV irradiation was not carried out” with Human dermal fibroblasts [1] (2% C-phycocyanin solution). The “cell activity (relative fluorescence intensity) after prior decrease by UV” value in the experiment with Human dermal fibroblasts [2] is “cell activity was recovered”.
